pIC50: −log10 of the molar value. Where a name gives a salt, the structure may show the parent alone.
Biological target: T1, human Cav3.2 channel (Homo sapiens, UniProt O95180)
T1 construct: expressed in transfected cells
Experiment: Intracellular calcium concentration measurement in human Cav3.2 channel expressing stable cell line (Pharmacological Test 1)
Format: cell-based
Conditions: HEK293 cells stably expressing human Cav3.2, Fluo-4 AM fluorescence, KCl stimulation; read-out: Cav3.2 channel inhibitory action
Source text: (1) Construction of Human Cav3.2 Channel Expressing Stable Cell Line
A sequence in which a HindIII site and a kozak sequence (GCCACC) was provided on a 5′ side of a human Cav3.2 channel open reading frame (ORF) gene and a KpnI site was provided on a 3′ side thereof was incorporated into pcDNA3.1(+) (Thermo Fisher Scientific #V790-20), and the resultant was transfected into a HEK293 cell (ATCC No. CRL-1573) according to a protocol of FuGENE (registered trademark) HD Transfection Reagent (Promega #E2311).
(2) Method of Measuring Intracellular Calcium Concentration
The human Cav3.2 channel expressing stable cell line prepared by the test method (1) was seeded in a 96-well plate using a Dulbecco's modified Eagle's medium (DMEM medium) containing 10% fetal bovine serum (FBS), followed by culturing 37° C. for 48 hours under a 5% CO2 condition. Thereafter, the medium was removed, and each well washed with an A buffer was treated with 80 μL of a fluorescent dye solution containing a liquid mixture of 22 μg of a calcium fluorescent indicator Fluo-4 AM (Dojindo Molecular Technologies, Inc., #F311), 20 μL of dimethyl sulfoxide (DMSO), 1 μL of 10% Pluronic F-127 (Thermo Fisher Scientific #P6866), and 4 mL of the A buffer. After being left to stand for 45 minutes at room temperature under a light shielding condition, the cells were washed with a B buffer. In DMSO having the same final concentration as the test compound as a negative control, and the test compound dissolved in DMSO to have a final concentration of 0.1%, each test compound concentration solution containing the B buffer was added to each well. The cells were left to stand for additional 15 minutes at room temperature under a light shielding condition, and were measured using microplate reader EnVision (PerkinElmer Co., Ltd.) by the following method. First, after measuring background fluorescence in each well, an ionophore was added, and baseline fluorescence was measured. Thereafter, B buffer containing added KCl at a concentration of 83.8 mM was added to each well, and an increase in fluorescence due to calcium influx caused by the stimulation was measured for 10 seconds. Inhibition percentage was calculated from the maximum fluorescence increase value from the baseline, and an IC50 value was calculated by plotting a logarithmic value of the test compound concentration and inhibition activity. The measurement was performed by observing fluorescence of 510 nm emitted when the cells were irradiated with excitation light of 485 nm.
A buffer: 140 mM NaCl, 5 mM KCl, 1 mM MgCl2, 0.5 mM CaCl2, 10 mM Glucose, 10 mM HEPES, pH 7.3
B buffer: potassium equilibrium potential: −92 mV

T1 sequence (O95180 whole entry): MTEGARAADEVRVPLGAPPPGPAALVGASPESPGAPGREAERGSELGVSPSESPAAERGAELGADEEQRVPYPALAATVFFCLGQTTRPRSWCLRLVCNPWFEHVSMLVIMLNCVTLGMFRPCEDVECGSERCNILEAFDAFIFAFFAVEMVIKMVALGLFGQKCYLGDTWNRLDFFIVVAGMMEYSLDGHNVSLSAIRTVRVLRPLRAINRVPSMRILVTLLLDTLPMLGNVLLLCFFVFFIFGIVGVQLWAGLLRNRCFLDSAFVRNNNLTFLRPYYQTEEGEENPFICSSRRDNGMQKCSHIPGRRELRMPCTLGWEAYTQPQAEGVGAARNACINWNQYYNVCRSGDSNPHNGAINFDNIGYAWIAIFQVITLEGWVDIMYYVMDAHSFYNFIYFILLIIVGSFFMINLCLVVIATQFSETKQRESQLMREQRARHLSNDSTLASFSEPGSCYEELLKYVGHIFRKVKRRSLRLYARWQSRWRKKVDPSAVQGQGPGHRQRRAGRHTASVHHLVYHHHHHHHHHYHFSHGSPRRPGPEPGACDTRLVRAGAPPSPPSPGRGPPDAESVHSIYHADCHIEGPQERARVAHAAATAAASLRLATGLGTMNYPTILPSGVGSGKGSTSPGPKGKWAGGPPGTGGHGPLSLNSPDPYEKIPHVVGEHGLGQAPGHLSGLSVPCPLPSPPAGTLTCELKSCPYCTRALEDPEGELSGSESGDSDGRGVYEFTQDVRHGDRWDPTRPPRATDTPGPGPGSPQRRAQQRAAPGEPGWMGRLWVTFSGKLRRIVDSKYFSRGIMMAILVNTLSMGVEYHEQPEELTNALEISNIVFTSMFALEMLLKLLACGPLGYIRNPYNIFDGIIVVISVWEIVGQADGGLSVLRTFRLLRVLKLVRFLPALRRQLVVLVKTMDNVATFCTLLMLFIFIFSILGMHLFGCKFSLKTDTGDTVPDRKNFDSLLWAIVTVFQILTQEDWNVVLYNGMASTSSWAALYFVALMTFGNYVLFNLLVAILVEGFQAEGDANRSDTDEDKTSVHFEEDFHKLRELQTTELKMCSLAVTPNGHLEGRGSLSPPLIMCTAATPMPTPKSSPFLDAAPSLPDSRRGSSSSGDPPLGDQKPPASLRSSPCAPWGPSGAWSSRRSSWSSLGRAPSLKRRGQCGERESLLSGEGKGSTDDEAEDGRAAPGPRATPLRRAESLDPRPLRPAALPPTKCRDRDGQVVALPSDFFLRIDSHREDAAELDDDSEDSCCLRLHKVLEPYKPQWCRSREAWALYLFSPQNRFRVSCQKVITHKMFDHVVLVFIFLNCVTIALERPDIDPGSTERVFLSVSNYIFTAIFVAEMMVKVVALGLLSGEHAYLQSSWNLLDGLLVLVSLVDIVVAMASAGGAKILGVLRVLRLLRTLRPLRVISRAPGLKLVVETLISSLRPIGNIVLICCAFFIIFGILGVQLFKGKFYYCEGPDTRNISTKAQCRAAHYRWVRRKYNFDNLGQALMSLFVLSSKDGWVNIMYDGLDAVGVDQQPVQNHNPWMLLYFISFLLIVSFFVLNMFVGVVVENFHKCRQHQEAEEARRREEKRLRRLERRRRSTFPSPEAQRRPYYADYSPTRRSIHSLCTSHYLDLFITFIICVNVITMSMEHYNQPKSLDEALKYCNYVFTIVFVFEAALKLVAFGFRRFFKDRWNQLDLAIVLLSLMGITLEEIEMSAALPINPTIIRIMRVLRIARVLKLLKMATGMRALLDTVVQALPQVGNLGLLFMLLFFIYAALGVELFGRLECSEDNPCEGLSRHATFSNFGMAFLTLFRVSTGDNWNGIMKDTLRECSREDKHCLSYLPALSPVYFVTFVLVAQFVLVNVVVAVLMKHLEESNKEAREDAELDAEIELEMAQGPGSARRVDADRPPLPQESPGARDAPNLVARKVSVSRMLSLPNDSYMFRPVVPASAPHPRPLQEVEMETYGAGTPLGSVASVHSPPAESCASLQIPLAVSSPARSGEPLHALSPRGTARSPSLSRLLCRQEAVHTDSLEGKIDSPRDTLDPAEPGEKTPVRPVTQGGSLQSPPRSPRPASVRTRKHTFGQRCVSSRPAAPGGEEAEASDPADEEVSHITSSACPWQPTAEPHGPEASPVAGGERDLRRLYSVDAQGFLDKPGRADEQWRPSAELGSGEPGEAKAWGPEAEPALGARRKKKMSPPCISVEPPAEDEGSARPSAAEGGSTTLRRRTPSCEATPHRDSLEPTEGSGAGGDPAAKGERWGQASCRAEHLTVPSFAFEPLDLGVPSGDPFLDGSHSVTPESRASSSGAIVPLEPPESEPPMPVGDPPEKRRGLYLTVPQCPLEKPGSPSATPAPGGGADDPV

| SMILES | pIC50 |
| --- | --- |
| O=C(NC1(C(=O)Nc2cccc(OC(F)(F)F)c2)CC1)[C@H]1C[C@@H]1c1nc2ccccc2[nH]1 [Example 43, 1-((1S, 2S)-2-(1H-Benzo[d]imidazol-2-yl)cyclopropane-1-carboxamido)-N-(3-(trifluoromethoxy)phenyl) cyclopropane-1-carboxamide] | ≥ 7.00 |
| CCC(=O)N1CCC(NC(=O)C(C)NC(=O)C2CC2c2nc3ccccc3[nH]2)CC1 (stereo not drawn) [Example 13, Trans-2-(1H-benzo[d]imidazol-2-yl)-N-(1-oxo-1-((1-propionylpiperidin-4-yl)amino)propan-2-yl) cyclopropane-1-carboxamide] | < 5.00 |
| CC(NC(=O)C1CC1c1nc2ccccc2[nH]1)C(=O)NC1CCNCC1 (stereo not drawn) [Example 12, Trans-2-(1H-benzo[d]imidazol-2-yl)-N-(1-oxo-1-(piperidin-4-ylamino)propan-2-yl) cyclopropane-1-carboxamide hydrochloride] | 5.00 to 6.00 |
| O=C(NC1(C(=O)Nc2cc(Cl)cc(Cl)c2)CC1)[C@H]1C[C@@H]1c1nc2ccccc2[nH]1 [Example 35, 1-((1S, 2S)-2-(1H-Benzo[d]imidazol-2-yl)cyclopropane-1-carboxamido)-N-(3,5-dichlorophenyl) cyclopropane-1-carboxamide] | 6.00 to 7.00 |
| O=C(Nc1ccc(C(F)(F)F)cc1)C1CCCN1C(=O)C1CC1c1nc2ccccc2[nH]1 (single isomer, unassigned) [Example 19A, Trans-1-(2-(1H-benzo[d]imidazol-2-yl)cyclopropane-1-carbonyl)-N-(4-(trifluoromethyl)phenyl)pyrrolidine-2-carboxamide] | 5.00 to 6.00 |
| CC(NC(=O)C1CC1c1nc2ccccc2[nH]1)C(=O)NCc1ccc(C(F)(F)F)nc1 (stereo not drawn) [Example 15, Trans-2-(1H-benzo[d]imidazol-2-yl)-N-(1-oxo-1-(((6-(trifluoromethyl)pyridin-3-yl)methyl)amino)propan-2-yl) cyclopropane-1-carboxamide] | 5.00 to 6.00 |
| O=C(NC1(C(=O)Nc2cccc(C(F)(F)F)c2F)CC1)[C@H]1C[C@@H]1c1nc2ccccc2[nH]1 [Example 41, 1-((1S, 2S)-2-(1H-Benzo[d]imidazol-2-yl)cyclopropane-1-carboxamido)-N-(2-fluoro-3-(trifluoromethyl)phenyl) cyclopropane-1-carboxamide] | 6.00 to 7.00 |
| O=C(CNC(=O)[C@H]1C[C@@H]1c1nc2ccccc2[nH]1)Nc1cccc(C(F)(F)F)c1 [Example 39, (1S, 2S)-2-(1H-Benzo[d]imidazol-2-yl)-N-(2-oxo-2-((3-(trifluoromethyl)phenyl)amino)ethyl) cyclopropane-1-carboxamide] | ≥ 7.00 |
| CC(NC(=O)C1CC1c1nc2ccccc2[nH]1)C(=O)NC1CCN(C(=O)OC(C)(C)C)CC1 (stereo not drawn) [Example 11, tert-Butyl trans-4-(2-(2-(1H-benzo[d]imidazol-2-yl)cyclopropane-1-carboxamido)propanamido)piperidine-1-carboxylate] | 5.00 to 6.00 |
| CC(NC(=O)C1CC1c1nc2ccccc2[nH]1)C(=O)N(C)c1ccc(C(F)(F)F)cc1 (single isomer, unassigned) [Example 8B, Trans-2-(1H-benzo[d]imidazol-2-yl)-N-(1-(methyl(4-(trifluoromethyl)phenyl)amino)-1-oxopropan-2-yl) cyclopropane-1-carboxamide] | 5.00 to 6.00 |
| CC(C)Oc1ccc(NC(=O)C(C)NC(=O)C2CC2c2nc3ccccc3[nH]2)cc1 (stereo not drawn) [Example 3, Trans-2-(1H-benzo[d]imidazol-2-yl)-N-(1-((4-isopropoxyphenyl)amino)-1-oxopropan-2-yl) cyclopropane-1-carboxamide] | 5.00 to 6.00 |
| CC(NC(=O)C1CC1c1nc2ccccc2[nH]1)C(=O)Nc1cccc(C(F)(F)F)c1 (single isomer, unassigned) [Example 38A, Trans-2-(1H-benzo[d]imidazol-2-yl)-N-(1-oxo-1-((3-(trifluoromethyl)phenyl)amino)propan-2-yl) cyclopropane-1-carboxamide] | ≥ 7.00 |
| O=C(NC1(C(=O)Nc2ccccc2C(F)(F)F)CC1)[C@H]1C[C@@H]1c1nc2ccccc2[nH]1 [Example 25, 1-((1S, 2S)-2-(1H-Benzo[d]imidazol-2-yl)cyclopropane-1-carboxamido)-N-(2-(trifluoromethyl)phenyl) cyclopropane-1-carboxamide] | 5.00 to 6.00 |
| COCC(NC(=O)[C@H]1C[C@@H]1c1nc2ccccc2[nH]1)C(=O)Nc1ccc(F)c(C(F)(F)F)c1 (single isomer, unassigned) [Example 32A] | 6.00 to 7.00 |
| O=C(NC1(C(=O)Nc2ccc(F)c(C(F)(F)F)c2)CC1)[C@H]1C[C@@H]1c1nc2cc(Cl)ccc2[nH]1 [Example 34, 1-((1S, 2S)-2-(5-Chloro-1H-benzo[d]imidazol-2-yl)cyclopropane-1-carboxamido)-N-(4-fluoro-3-(trifluoromethyl)phenyl) cyclopropane-1-carboxamide] | ≥ 7.00 |
| O=C(NC1CC(=O)N(c2ccc(C(F)(F)F)nc2)C1)[C@H]1C[C@@H]1c1nc2ccccc2[nH]1 (single isomer, unassigned) [Example 33A] | 5.00 to 6.00 |
| CC(NC(=O)C1CC1c1nc2ccccc2[nH]1)C(=O)Nc1ccc(C#N)cc1 (single isomer, unassigned) [Example 6A, Trans-2-(1H-benzo[d]imidazol-2-yl)-N-(1-((4-cyanophenyl)amino)-1-oxopropan-2-yl) cyclopropane-1-carboxamide] | 5.00 to 6.00 |
| O=C(NC1(C(=O)Nc2ccc(C(F)(F)F)cc2F)CC1)[C@H]1C[C@@H]1c1nc2ccccc2[nH]1 [Example 28, 1-((1S, 2S)-2-(1H-Benzo[d]imidazol-2-yl)cyclopropane-1-carboxamido)-N-(2-fluoro-4-(trifluoromethyl)phenyl) cyclopropane-1-carboxamide] | 6.00 to 7.00 |
| CCCc1ccc(NC(=O)C(C)NC(=O)C2CC2c2nc3ccccc3[nH]2)cc1 (single isomer, unassigned) [Example 1B, Trans-2-(1H-benzo[d]imidazol-2-yl)-N-(1-oxo-1-((4-propylphenyl)amino)propan-2-yl) cyclopropane-1-carboxamide] | 6.00 to 7.00 |
| O=C(NC1CCN(c2ccc(C(F)(F)F)cc2)C1=O)[C@H]1C[C@@H]1c1nc2ccccc2[nH]1 (single isomer, unassigned) [Example 23B] | 6.00 to 7.00 |

Source: patent US11370761B2, “Voltage-dependent T-type calcium channel inhibitor” (Nippon Chemiphar Co., Ltd., priority 2017, dated 2022)
